Reference: US11673894B2, “Imidazopyrimidines and triazolopyrimidines as A2A / A2B inhibitors” (Incyte Corporation, priority 2018, dated 2023)

What was measured:
[1] = biological target: Adenosine A2A receptor (Homo sapiens (Human), UniProt P29274); assay: A2A Tag-lite HTRF Assay; conditions: Tag-lite Adenosine A2A labeled cells; A2A Receptor Red antagonist fluorescent ligand 12.5 nM; one-site competitive binding model; read-out: A2A_Ki
Excerpt: The final concentration of DMSO was 1%.

[2] = biological target: human adenosine A2B receptor (Homo sapiens (Human), UniProt P29275); assay: Adenosine A2B Receptor Cyclic AMP GS Assay; type: cell-based; conditions: HEK-293 cells expressing human A2B receptor; agonist NECA at 12 nM; cAMP accumulation (FRET); read-out: A2B_cAMP_EC50
Procedure: Stably transfected HEK-293 cells expressing the human adenosine A2B receptor (Perkin Elmer) were maintained in MEM culture medium with 10% FBS and 100 μg/ml Geneticin (Life Technologies). 18 to 24 hours prior to assay, geneticin was removed from culture. The cisbio cAMP-GS Dynamic kit utilizing the FRET (Fluorescence Resonance Energy Transfer) technology was used to measure cAMP accumulation in the cells. Compounds of the present disclosure at an appropriate concentration were mixed with 10000 cells/well in white 96 well half area plates (Perkin Elmer) for 30 min at RT gently shaking. Agonist, NECA (R&D Technologies) at 12 nM was added to each well for 60 min at RT gently shaking. Detection reagents, d2-labeled cAMP (acceptor) and anti-cAMP cryptate (donor) were added to each well for 60 min at RT gently shaking. Plates were read on Pherastar (BMG Labtech), fluorescence ratio 665/620 was calculated and EC50 determination was performed by fitting the curve of percent of control versus the log of the compound concentration using GraphPad Prism.

Sequence of Adenosine A2A receptor (P29274 whole entry): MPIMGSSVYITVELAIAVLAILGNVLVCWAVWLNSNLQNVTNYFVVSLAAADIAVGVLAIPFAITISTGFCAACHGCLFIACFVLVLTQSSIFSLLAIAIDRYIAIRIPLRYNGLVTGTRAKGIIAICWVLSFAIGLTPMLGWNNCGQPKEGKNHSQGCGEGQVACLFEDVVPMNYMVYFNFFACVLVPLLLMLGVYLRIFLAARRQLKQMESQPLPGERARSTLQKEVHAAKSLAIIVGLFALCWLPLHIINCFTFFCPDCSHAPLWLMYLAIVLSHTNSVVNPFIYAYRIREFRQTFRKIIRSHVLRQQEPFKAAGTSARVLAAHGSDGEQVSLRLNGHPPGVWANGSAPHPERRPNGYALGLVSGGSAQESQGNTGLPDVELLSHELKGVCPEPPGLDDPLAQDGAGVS
Sequence of human adenosine A2B receptor (P29275 whole entry): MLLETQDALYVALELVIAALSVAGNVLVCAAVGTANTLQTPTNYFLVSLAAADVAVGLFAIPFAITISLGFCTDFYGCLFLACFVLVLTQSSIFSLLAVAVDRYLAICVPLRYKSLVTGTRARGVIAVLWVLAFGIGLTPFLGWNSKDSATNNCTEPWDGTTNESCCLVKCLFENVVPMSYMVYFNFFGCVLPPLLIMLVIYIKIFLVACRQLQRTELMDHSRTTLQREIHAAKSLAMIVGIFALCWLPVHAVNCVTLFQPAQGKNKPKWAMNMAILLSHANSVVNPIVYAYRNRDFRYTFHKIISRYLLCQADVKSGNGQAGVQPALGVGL

Ki [1] [µM] | EC50 [2] [µM] | Compound
< 0.01 | < 0.01 | N#Cc1cccc(-c2nc(N)n3nc(COc4ccccc4C#N)nc3c2-c2ccncn2)c1 [Example 96, 2-((5-Amino-7-(3-cyanophenyl)-8-(pyrimidin-4-yl)-[1,2,4]triazolo[1,5-c]pyrimidin-2-yl)methoxy)benzonitrile]
< 0.01 | < 0.01 | CCNC(=O)c1cn2c(N)nc(-c3cccc(C#N)c3)c(-c3ccncc3Cl)c2n1 [Example 29, 5-Amino-7-(3-cyanophenyl)-N-ethyl-8-(3-chloropyridin-4-yl)imidazo[1,2-c]pyrimidine-2-carboxamide]
0.01 to 0.1 |  | CCOc1ccc(-c2cnc3c(-c4ccnc(C)c4)c(-c4ccccc4)nc(N)n23)cc1 [Example 13, 3-(4-Ethoxyphenyl)-8-(2-methylpyridin-4-yl)-7-phenylimidazo[1,2-c]pyrimidin-5-amine]
< 0.01 | 0.01 to 0.1 | N#Cc1cccc(-c2nc(N)n3nc(C(Oc4ccccn4)c4ccccc4)nc3c2-c2ccncn2)c1 (stereo not shown) [Example 71, 3-(5-Amino-2-(phenyl(pyridin-2-yloxy)methyl)-8-(pyrimidin-4-yl)-[1,2,4]triazolo[1,5-c]pyrimidin-7-yl)benzonitrile]
< 0.01 | 0.1 to 1 | CCn1cc(-c2c(-c3cccc(C#N)c3)nc(N)n3cc(C(=O)Nc4cnn(CCO)c4)nc23)ccc1=O [Example 25, 5-Amino-7-(3-cyanophenyl)-8-(1-ethyl-6-oxo-1,6-dihydropyridin-3-yl)-N-(1-(2-hydroxyethyl)-1H-pyrazol-4-yl)imidazo[1,2-c]pyrimidine-2-carboxamide]
< 0.01 | < 0.01 | Cc1cnccc1-c1c(-c2cccc(C#N)c2)nc(N)n2nc(Cc3ccccn3)nc12 [Example 58, 3-(5-Amino-8-(3-methylpyridin-4-yl)-2-(pyridin-2-ylmethyl)-[1,2,4]triazolo[1,5-c]pyrimidin-7-yl)benzonitrile]
< 0.01 | < 0.01 | CCNC(=O)c1cn2c(N)nc(-c3cccc(C#N)c3)c(-c3cn[nH]c3C)c2n1 [Example 34, 5-Amino-7-(3-cyanophenyl)-N-ethyl-8-(5-methyl-1H-pyrazol-4-yl)imidazo[1,2-c]pyrimidine-2-carboxamide]
< 0.01 | < 0.01 | CCn1cc(-c2c(-c3cccc(C#N)c3)nc(N)n3cc(C(=O)N4CC(O)C4)nc23)ccc1=O [Example 24, 3-(5-Amino-8-(1-ethyl-6-oxo-1,6-dihydropyridin-3-yl)-2-(3-hydroxyazetidine-1-carbonyl)imidazo[1,2-c]pyrimidin-7-yl)benzonitrile]
< 0.01 | 0.01 to 0.1 | N#Cc1cccc(-c2nc(N)n3nc(C4CCOC4)nc3c2-c2ccncc2)c1 (stereo not shown) [Example 70, 3-(5-Amino-8-(pyridin-4-yl)-2-(tetrahydrofuran-3-yl)-[1,2,4]triazolo[1,5-c]pyrimidin-7-yl)benzonitrile]
0.01 to 0.1 |  | Cc1cc(-c2c(-c3ccccc3)nc(N)n3c(CN4CCOCC4)cnc23)cc(C)n1 [Example 3, 8-(2,6-Dimethylpyridin-4-yl)-3-(morpholinomethyl)-7-phenylimidazo[1,2-c]pyrimidin-5-amine]
< 0.01 | 0.01 to 0.1 | CCNC(=O)c1cn2c(N)nc(-c3cccc(C#N)c3)c(-c3ccnn3C(C)C)c2n1 [Example 36, 5-Amino-7-(3-cyanophenyl)-N-ethyl-8-(1-isopropyl-1H-pyrazol-5-yl)imidazo[1,2-c]pyrimidine-2-carboxamide]
< 0.01 | < 0.01 | COCc1nc(C)oc1-c1c(-c2cccc(C#N)c2)nc(N)n2nc(Cc3ccccn3)nc12 [Example 63, 3-(5-Amino-8-(4-(methoxymethyl)-2-methyloxazol-5-yl)-2-(pyridin-2-ylmethyl)-[1,2,4]triazolo[1,5-c]pyrimidin-7-yl)benzonitrile]
< 0.01 | 0.01 to 0.1 | Cc1cccc(Cc2nc3c(-c4ccncn4)c(-c4cccc(C#N)c4)nc(N)n3n2)n1 [Example 51, 3-(5-Amino-2-((6-methylpyridin-2-yl)methyl)-8-(pyrimidin-4-yl)-[1,2,4]triazolo[1,5-c]pyrimidin-7-yl)benzonitrile]
< 0.01 | < 0.01 | N#Cc1cccc(-c2nc(N)n3nc(Cc4ccccc4F)nc3c2-c2ccncn2)c1 [Example 49, 3-(5-Amino-2-(2-fluorobenzyl)-8-(pyrimidin-4-yl)-[1,2,4]triazolo[1,5-c]pyrimidin-7-yl)benzonitrile]
< 0.01 | < 0.01 | N#Cc1cccc(-c2nc(N)n3nc(C(=O)c4ccccc4)nc3c2-c2ccncn2)c1 [Example 66, 3-(5-Amino-2-benzoyl-8-(pyrimidin-4-yl)-[1,2,4]triazolo[1,5-c]pyrimidin-7-yl)benzonitrile]
< 0.01 | 0.1 to 1 | Cc1cc(-c2c(-c3ccccc3)nc(N)n3cc(-c4ccccc4)nc23)ccn1 [Example 10, 8-(2-Methylpyridin-4-yl)-2,7-diphenylimidazo[1,2-c]pyrimidin-5-amine]
< 0.01 | < 0.01 | Cc1ncoc1-c1c(-c2cccc(C#N)c2)nc(N)n2nc(Cc3cccc(C(F)(F)F)n3)nc12 [Example 89, 3-(5-Amino-8-(4-methyloxazol-5-yl)-2-((6-(trifluoromethyl)pyridin-2-yl)methyl)-[1,2,4]triazolo[1,5-c]pyrimidin-7-yl)benzonitrile]
< 0.01 | < 0.01 | N#Cc1cccc(-c2nc(N)n3nc(Cc4c(F)cccc4CN4CCCS4(=O)=O)nc3c2-c2ccncn2)c1 [Example 86, 3-(5-Amino-2-(2-((1,1-dioxidoisothiazolidin-2-yl)methyl)-6-fluorobenzyl)-8-(pyrimidin-4-yl)-[1,2,4]triazolo[1,5-c]pyrimidin-7-yl)benzonitrile]
< 0.01 | < 0.01 | N#Cc1cccc(-c2nc(N)n3nc(Cc4ccccn4)nc3c2-c2ccncn2)c1 [Example 41, 3-(5-Amino-2-(pyridin-2-ylmethyl)-8-(pyrimidin-4-yl)-[1,2,4]triazolo[1,5-c]pyrimidin-7-yl)benzonitrile]
< 0.01 | 0.01 to 0.1 | CCNC(=O)c1cn2c(N)nc(-c3cccc(C#N)c3)c(-c3ccncc3C)c2n1 [Example 27, 5-Amino-7-(3-cyanophenyl)-N-ethyl-8-(3-methylpyridin-4-yl)imidazo[1,2-c]pyrimidine-2-carboxamide]
< 0.01 | 0.1 to 1 | N#Cc1cccc(-c2nc(Nc3ncccc3C#N)n3nc(C(O)c4ccccc4)nc3c2-c2ccncn2)c1 (stereo not shown) [Example 68, 2-((7-(3-Cyanophenyl)-2-(hydroxy(phenyl)methyl)-8-(pyrimidin-4-yl)-[1,2,4]triazolo[1,5-c]pyrimidin-5-yl)amino)nicotinonitrile]
0.01 to 0.1 |  | Cc1cc(-c2c(-c3cnn(C)c3)nc(N)n3ccnc23)ccn1 [Example 9, 7-(1-Methyl-1H-pyrazol-4-yl)-8-(2-methylpyridin-4-yl)imidazo[1,2-c]pyrimidin-5-amine]
0.01 to 0.1 |  | COC(=O)c1cc(-c2cn3c(N)nc(-c4ccccc4)c(-c4ccncc4)c3n2)on1 [Example 12, Methyl 5-(5-amino-7-phenyl-8-(pyridin-4-yl)imidazo[1,2-c]pyrimidin-2-yl)isoxazole-3-carboxylate]
0.1 to 1 |  | Nc1nc(-c2cc3ccccc3o2)c(-c2ccncc2)c2nccn12 [Example 8, 7-(Benzofuran-2-yl)-8-(pyridin-4-yl)imidazo[1,2-c]pyrimidin-5-amine]
0.1 to 1 |  | Cc1cc(-c2c(-c3cnc4c(c3)CCN4)nc(N)n3ccnc23)cc(C)n1 [Example 2, 7-(2,3-Dihydro-1H-pyrrolo[2,3-b]pyridin-5-yl)-8-(2,6-dimethylpyridin-4-yl)imidazo[1,2-c]pyrimidin-5-amine]
 | 0.01 to 0.1 | N#Cc1cccc(-c2nc(N)n3nc(C(O)c4c(F)cccc4F)nc3c2-c2ccncn2)c1 (single isomer, unassigned) [Example 77, 3-(5-Amino-2-((2,6-difluorophenyl)(hydroxy)methyl)-8-(pyrimidin-4-yl)-[1,2,4]triazolo[1,5-c]pyrimidin-7-yl)benzonitrile]
0.01 to 0.1 |  | CCOC(=O)c1cn2c(N)nc(-c3ccccc3)c(-c3ccnc(C)c3)c2n1 [Example 11, Ethyl 5-amino-8-(2-methylpyridin-4-yl)-7-phenylimidazo[1,2-c]pyrimidine-2-carboxylate]
 | < 0.01 | N#Cc1cccc(-c2nc(N)n3nc(C(O)c4c(F)cccc4F)nc3c2-c2ccncn2)c1 (single isomer, unassigned) [Example 76, 3-(5-Amino-2-((2,6-difluorophenyl)(hydroxy)methyl)-8-(pyrimidin-4-yl)-[1,2,4]triazolo[1,5-c]pyrimidin-7-yl)benzonitrile]
0.01 to 0.1 |  | Cc1occc1-c1nc(N)n2ccnc2c1-c1ccncc1 [Example 6, 7-(2-Methylfuran-3-yl)-8-(pyridin-4-yl)imidazo[1,2-c]pyrimidin-5-amine]
< 0.01 |  | CCNC(=O)c1cn2c(N)nc(-c3ccccc3)c(-c3cc(C)[n+]([O-])c(C)c3)c2n1 [Example 23, 4-(5-Amino-2-(ethylcarbamoyl)-7-phenylimidazo[1,2-c]pyrimidin-8-yl)-2,6-dimethylpyridine 1-oxide]
